According to patent US20070009961A1, “Identification of targeting component of herbal medicines from simplified HPLC spectrum using after flowing through immobilized receptor (AFTIR) method” (Academia Sinica, priority 2005, published 2007):
Read-outs that look alike come from different tables or passages of the source. Each block holds one molecule with its values, some of them ahead of it.

Legend:
[1] = target: T1, CD28-mulg (extracellular domain of human CD28 fused to murine IgG2a Fc), immobilized on CM5 chip (Homo sapiens, UniProt P10747); assay: Surface plasmon resonance (BIAcore) binding to chip immobilised CD28 / AFTIR
T1 construct: soluble fusion protein consisting of the extracellular (134 aa) domain of human CD28; purchased ID Labs Inc; host or cells: CHO transfectants
Description: Receptors and proteins. Human CD28-mulg and CD80-mulg fusion proteins were purchased from ID Labs Inc. CD28-mulg is a soluble fusion protein consisting of the extracellular (134 aa) domain of human CD28 fused to murine IgG2a Fc (233 aa). CD80-mulg is a soluble fusion protein consisting of the extracellular (173 aa) domain of human CD80 fused to murine IgG2a Fc (232 aa). Both were purified from tissue culture supernatant of CHO transfectants by protein A and size exclusion chromatography. Anti-human CD28 antibody and anti-human CD3 antibody were purchased from BioLegend. In the experiments, the quantity of anti-CD28 and CD80 used is only around 2% the quantity of CD28 immobilized.
Surface plasmon resonance analysis. BIAcore 3000 (Biacore, Uppsala, Sweden) was employed for real-time biospecific interaction analysis. Binding analysis was performed at 25° C. with a flow rate of 10 μl/min. In general, proteins can be immobilized on the layer of carboxylated dextran in CM5 sensor chip (research grade; Biacore) by amine coupling. With each injection, samples were diluted in the running buffer HBS (10 mM HEPES, pH 7.4, 150 mM NaCl, 3.4 mM EDTA, 0.005% surfactant P20) to a final concentration of 15 to 30 μM. After each injection, flow-cell can be regenerated by flowing though the cell with the buffer containing 50 mM NaOH. Extracts were injected at different concentrations from 1.9 μM to 60 μM. The binding constant between immobilized receptor (imm-CD28) and ligand was determined using BIAevaluation 3.1 software (Biacore).
CD28-mulg, a soluble fusion protein consisting of the extracellular (134 aa) domain of human CD28 fused to murine IgG2a Fc (233 aa), was immobilized to dextran matrix on the sensor chip surface, via covalent coupling of primary amines (—NH2). In this report, the term CD28 will be used as shorthand for CD28-mulg. […]
The RU as shown in FIGS. 5b-5d is the actual RU subtracted by the “background RU”. […] Affinity binding constants (1/KD) can be obtained from KD, where KD is calculated from Scatchard plots. […]

[2] = tested on: CD28 dependent IL-2 expression in Jurkat cells; assay: Jurkat T-cell IL-2 secretion (ELISA), CD28-dependent stimulation (anti-CD3 plus anti-CD28); assay type: cell-based, human
Procedure: Stimulation of T-cell. Jurkat leukemic T cells were maintained in a humidified atmosphere of 5% CO2/95% air at 37° C. in RPMI-1640 medium (HyClone, Utah, USA) including penicillin, streptomycin and 10% heat-inactivated FBS. Two modes of activations were used for the present experiments: anti-CD3 plus anti-CD28 (CD28-dependent stimulation) and PMA plus ionomycin (CD28-independent stimulation). For experiment of CD28-dependant stimulation, flat-bottom 96-well plates were coated with 10 μg/ml of anti-CD3 for 24 h at 4° C. Wells anti-CD3 were washed twice with PBS. After washing, the unbounded anti-CD3 was removed. Jurkat T-cells (200 μl 2×10^6 cells/ml) with soluble anti-CD28 (1 μg/ml) were then added into the wells. The cells were activated by anti-CD3 already existing in the wells. Upon the activation, the cell solution was stayed for 24 h. The supernatant (100 μl) of cell solution was then used for the measurement of IL-2 by enzyme-linked immuno-sorbent assay (ELISA). For experiment of CD28-indepentant stimulation, 200 μl Jurkat cell (5×10^5 cell/ml) were incubated with PMA (50 nM)/lonomycin (1 μg/ml) for 24 h. 100 μl supernatant was then used for IL-2 measurement by ELISA. […] The culture supernatants in both modes were harvested after 24h incubation and then used for the measurements of IL-2. IL-2 measurement was done using the commercial available ELISA kit (Biosource; California, US). The details how to measure the concentration of IL-2 after T-cell is activated is shown below. IL-2 ELISA assay. IL-2 concentration of T-cell was determined by following the instruction from manufacturer (Biosource; California, US). A 96-well flat-bottom plate was coated with anti-IL-2 mAb (100 μl at 4 μg/ml) in phosphate-buffered saline (PBS; pH 7.3) at room temperature overnight. The plate was then washed with PBS containing 0.05% Tween 20 (PBS-T) three times. Subsequently, the plate was incubated with a blocking solution containing 1% bovine serum albumin in PBS for more than 1 hr. After washing by PBS-T, 100 μl supernatant mixed with biotinylated anti-IL-2 detection antibodies (50 μl at 12.5 ng/ml) was added into each well and stay for 2 hr. After washing, 100 μl streptavidin horseradish peroxidase (1/2000 dilution of a 1.25 mg/ml solution) was added and the solution was incubated for 30 min at room temperature. After washing, 100 μl substrate solution containing 1/1 mixture of H2O2 and tetramethylbenzidine was added and the solution was incubated for 25min at room temperature. The solution reaction involving the stimulated sample was ceased by the addition of 100 μl stop solution (1M H2SO4). Concentration of IL-2 was then measured with microplate reader. The amount of IL-2 was indicated by the relative percentage ([…] of IL-2 is defined as 100%). […]

[3] = tested on: CD28-independent IL-2 response of Jurkat cells; assay: Jurkat T-cell IL-2 secretion (ELISA), CD28-independent stimulation (PMA plus ionomycin); assay type: cell-based, human
Procedure: Stimulation of T-cell. Jurkat leukemic T cells were maintained in a humidified atmosphere of 5% CO2/95% air at 37° C. in RPMI-1640 medium (HyClone, Utah, USA) including penicillin, streptomycin and 10% heat-inactivated FBS. Two modes of activations were used for the present experiments: anti-CD3 plus anti-CD28 (CD28-dependent stimulation) and PMA plus ionomycin (CD28-independent stimulation). For experiment of CD28-dependant stimulation, flat-bottom 96-well plates were coated with 10 μg/ml of anti-CD3 for 24 h at 4° C. Wells anti-CD3 were washed twice with PBS. After washing, the unbounded anti-CD3 was removed. Jurkat T-cells (200 μl 2×10^6 cells/ml) with soluble anti-CD28 (1 μg/ml) were then added into the wells. The cells were activated by anti-CD3 already existing in the wells. Upon the activation, the cell solution was stayed for 24 h. The supernatant (100 μl) of cell solution was then used for the measurement of IL-2 by enzyme-linked immuno-sorbent assay (ELISA). For experiment of CD28-indepentant stimulation, 200 μl Jurkat cell (5×10^5 cell/ml) were incubated with PMA (50 nM)/lonomycin (1 μg/ml) for 24 h. 100 μl supernatant was then used for IL-2 measurement by ELISA. […] IL-2 concentration of T-cell was determined by following the instruction from manufacturer (Biosource; California, US). […] Concentration of IL-2 was then measured with microplate reader. […]

[4] = target: T2, CD28-mulg, soluble fusion protein consisting of the extracellular (134 aa) domain of human CD28 fused to … (human; murine, UniProt P10747 19-152); assay: SPR, CD28-mulg on CM5 chip
T2 construct: extracellular domain; Bought from ID Labs Inc; purified from CHO transfectant supernatant; Coupled by primary amines to a CM5 sensor chip in all assays; also called imm-CD28; immobilized CD28; not shown: murine IgG2a Fc (233 aa)

- binding efficiency [1]: > 90%
- binding capacity ΔR on immobilised CD28 ([1]; SPR, 10 μg/ml ligand): ~120 RU
Molecule: CD80: soluble fusion protein: extracellular (173 aa) domain of human CD80 fused to murine IgG2a Fc

- ability to bind CD28 (peak in HPLC profile after AFTIR) ([1]; bound CEE washed off the chip and profiled with HPLC): can bind CD28
Molecule: O=C(/C=C/c1ccc(O)c(O)c1)O[C@@H]1C[C@](O)(C(=O)O)C[C@@H](O)[C@H]1O [C1, chlorogenic acid (5-O-caffeoylquinic acid)]
- effect on IL-2 response (in words) [2]: linearly reduces IL-2 response
- effect on IL-2 response (in words) ([2]; listed as Chlorogenic acid): downregulates CD28 dependent interleukin-2 (IL-2) expression
- effect on IL-2 response (in words) ([2]; listed as chlorogenic acid): downregulating CD28 dependent IL-2 expression
- downregulation of IL-2 secretion response ([2]; normalized to 100%): −53%
- effect on IL-2 response (in words) [3]: unable to modulate

- ratio of binding receptor:ligand (mole:mole) [4]: ~0.92 mole CD80 per mole imm-CD28
B1: CD80-mulg, soluble fusion protein consisting of the extracellular (173 aa) domain of human CD80 fused to murine IgG2a Fc (232 aa) (Fc fusion, UniProt P33681 35-242, looked up)
chain: VIHVTKEVKEVATLSCGHNVSVEELAQTRIYWQKEKKMVLTMMSGDMNIWPEYKNRTIFDITNNLSIVILALRPSDEGTYECVVLKYEKDAFKREHLAEVTLSVKADFPTPSISDFEIPTSNIRRIICSTSGGFPEPHLSWLENGEELNAINTTVSQDPETELYAVSSKLDFNMTTNHSFMCLIKYGHLRVNQTFNWNTTKQEHFPDN
notes: extracellular domain; Bought from ID Labs Inc; purified from CHO transfectant supernatant; Used as the soluble analyte in SPR; also called Human CD80-mulg; not shown: murine IgG2a Fc (232 aa)
